Among the data in patent US9783532B2, “Molecules having certain pesticidal utilities, and intermediates, compositions, and processes related thereto” (Dow AgroSciences LLC, priority 2013, dated 2017) are mortality and pest or weed control values, retold here.

Read-outs that look alike come from different tables or passages of the source.

Assay [1] has as its system Cabbage Looper (Trichoplusia ni) ("CL"). Put plainly: Bioassay on cabbage looper (CL), 128-well diet tray assay. In kind it is in vivo. The conditions noted are these: for mortality at 50 µg/cm2: 168 h, 50 μg/cm^2 on artificial diet, second instar CL larvae, 25° C., five to seven days, average of eight wells, read-out: CL % Control (or Mortality) rating; for pest or weed control at 50 µg/cm2: activity rating class, read-out: CL (Biological Results, Insect species). Summed up: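 Second-instar larvae (one to five per well) placed on artificial diet surface-treated with 50 μg/cm^2 compound in 90:10 acetone-water, dried before infestation. Held 25 °C, 14:10 light-dark for five to seven days; percent mortality scored per well and averaged over eight wells.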

In assay [2] the test system is Beet Armyworm (Spodoptera exigua) ("BAW"). In words: Bioassay on beet armyworm (BAW), 128-well diet tray assay. It counts as in vivo. The conditions noted are these: for mortality at 50 µg/cm2: 168 h, 50 μg/cm^2 on artificial diet, second instar BAW larvae, 25° C., five to seven days, average of eight wells, read-out: BAW % Control (or Mortality) rating; for pest or weed control at 50 µg/cm2: activity rating class, read-out: BAW (Biological Results, Insect species). Summed up:
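Second-instar larvae (one to five per well) were placed on artificial diet surface-treated with 50 μg/cm^2 compound applied in 90:10 acetone-water and dried, eight wells per compound. Held at 25° C., 14:10 light-dark for five to seven days; percent mortality was scored per well and averaged over the eight wells.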

On to `CCC(CNC(=O)/N=C1\SCC(=O)N1c1cc(C)ccc1C(C)C)c1ccc(-c2ncn(-c3ccc(OC(F)(F)F)cc3)n2)cc1` (stereo not drawn) [P364, (Z)-1-(3-(2-isopropyl-5-methylphenyl)-4-oxothiazolidin-2-ylidene)-3-(2-(4-(1-(4-(trifluoromethoxy)phenyl)-1H-1,2,4-triazol-3-yl)phenyl)butyl)urea], for which the mortality at 50 µg/cm2 in assay [1] and in assay [2] was 50 to 100% in each case.

For the molecule `CCc1cccc(C)c1NC(=S)NC(=O)NCCc1cccc(-c2ncn(-c3ccc(OC(F)(F)F)cc3)n2)c1` [PC83, 1-[(2-ethyl-6-methyl-phenyl)carbamothioyl]-3-[2-[3-[1-[4-(trifluoromethoxy)phenyl]-1H-1,2,4-triazol-3-yl]phenyl]ethyl]urea], the pest or weed control at 50 µg/cm2 in assay [1] (Table ABC (PC)) and in assay [2] (Table ABC (PC)) was 50 to 100% throughout.

`Cc1ccc(C(C)C)c(NC(=S)NC(=O)NCCCCc2cccc(-c3ncn(-c4ccc(OC(F)(F)F)cc4)n3)c2)c1` [PC176, 1-[(2-isopropyl-5-methyl-phenyl)carbamothioyl]-3-[4-[3-[1-[4-(trifluoromethoxy)phenyl]-1H-1,2,4-triazol-3-yl]phenyl]butyl]urea]: the pest or weed control at 50 µg/cm2 in assay [1] (Table ABC (PC)) fell in the range of 50 to 100%; in assay [2] (Table ABC (PC)) it was 0 to 50%.

As to `CC(C)c1ccc(Cl)cc1N1C(=O)CS/C1=N\C(=O)NCc1cccc(-c2ncn(-c3ccc(OC(F)(F)F)cc3)n2)c1` [FB35, (Z)-1-(3-(5-chloro-2-isopropylphenyl)-4-oxothiazolidin-2-ylidene)-3-(3-(1-(4-(trifluoromethoxy)phenyl)-1H-1,2,4-triazol-3-yl)benzyl)urea], the pest or weed control at 50 µg/cm2 in assay [1] (Table ABC (FB)) and in assay [2] (Table ABC (FB)) was 50 to 100% throughout.

On to `Cc1ccc(C(C)C)c(NC(=S)NC(=O)NCCCc2cccc(-c3ncn(-c4ccc(OC(F)(F)F)cc4)n3)c2)c1` [PC124, 1-[(2-isopropyl-5-methyl-phenyl)carbamothioyl]-3-[3-[3-[1-[4-(trifluoromethoxy)phenyl]-1H-1,2,4-triazol-3-yl]phenyl]propyl]urea], for which the pest or weed control at 50 µg/cm2 in assay [1] (Table ABC (PC)) and in assay [2] (Table ABC (PC)) was 50 to 100% in each case.

Turning to `Cc1cc(-c2ncn(-c3ccc(OC(F)(F)F)cc3)n2)ccc1CCNC(=O)/N=C1\SCC(=O)N1c1cc(Cl)ccc1C(C)C` [FB7, (Z)-1-(3-(5-chloro-2-isopropylphenyl)-4-oxothiazolidin-2-ylidene)-3-(2-methyl-4-(1-(4-(trifluoromethoxy)phenyl)-1H-1,2,4-triazol-3-yl)phenethyl)urea], the pest or weed control at 50 µg/cm2 in assay [1] (Table ABC (FB)) and in assay [2] (Table ABC (FB)) was 50 to 100% throughout.

Consider `CC(C)c1cc(F)ccc1N1C(=O)CS/C1=N\C(=O)NCCc1cccc(-c2ncn(-c3ccc(OC(F)(F)F)cc3)n2)c1` [P85, (Z)-1-(3-(4-fluoro-2-isopropylphenyl)-4-oxothiazolidin-2-ylidene)-3-(3-(1-(4-(trifluoromethoxy)phenyl)-1H-1,2,4-triazol-3-yl)phenethyl)urea], for which the mortality at 50 µg/cm2 in assay [1] and in assay [2] was 50 to 100% each time.

On to `CCn1s/c(=N\C(=O)NCCc2ccc(-c3ncn(-c4ccc(OC(F)(F)F)cc4)n3)cc2)n(-c2cc(F)ccc2C(C)C)c1=O` [FB12, (Z)-1-(2-ethyl-4-(5-fluoro-2-isopropylphenyl)-3-oxo-1,2,4-thiadiazolidin-5-ylidene)-3-(4-(1-(4-(trifluoromethoxy)phenyl)-1H-1,2,4-triazol-3-yl)phenethyl)urea], for which the pest or weed control at 50 µg/cm2 in assay [1] (Table ABC (FB)) and in assay [2] (Table ABC (FB)) was 50 to 100% in each case.

Take `Cc1ccc(C(C)C)c(NC(=S)NC(=O)NCCc2ccc(-c3ncn(-c4ccc(OC(F)(F)F)cc4)n3)cc2C)c1` [FB1, 1-[(2-isopropyl-5-methyl-phenyl)carbamothioyl]-3-[2-[2-methyl-4-[1-[4-(trifluoromethoxy)phenyl]-1H-1,2,4-triazol-3-yl]phenyl]ethyl]urea]: the pest or weed control at 50 µg/cm2 in assay [1] (Table ABC (FB)) and in assay [2] (Table ABC (FB)) was 50 to 100% each time.

In the case of `CC(C)c1ccccc1NC(=S)NC(=O)NCCCc1ccc(-c2ncn(-c3ccc(OC(F)(F)F)cc3)n2)cc1` [PC94, 1-[(2-isopropylphenyl)carbamothioyl]-3-[3-[4-[1-[4-(trifluoromethoxy)phenyl]-1H-1,2,4-triazol-3-yl]phenyl]propyl]urea], the pest or weed control at 50 µg/cm2 in assay [1] (Table ABC (PC)) and in assay [2] (Table ABC (PC)) was 50 to 100% throughout.

For `Cc1ccc(C(C)C)c(NC(=S)NC(=O)NCCCCc2ccc(-c3ncn(-c4ccc(C(F)(F)F)cc4)n3)cc2)c1` [PC159, 1-[(2-isopropyl-5-methyl-phenyl)carbamothioyl]-3-[4-[4-[1-[4-(trifluoromethyl)phenyl]-1H-1,2,4-triazol-3-yl]phenyl]butyl]urea], the pest or weed control at 50 µg/cm2 in assay [1] (Table ABC (PC)) and in assay [2] (Table ABC (PC)) was 50 to 100% each time.

As to `CCCc1ccc(C)cc1NC(=S)NC(=O)NCc1ccc(-c2ncn(-c3ccc(OC(F)(F)F)cc3)n2)cc1` [PC8, 1-[(5-methyl-2-propyl-phenyl)carbamothioyl]-3-[[4-[1-[4-(trifluoromethoxy)phenyl]-1H-1,2,4-triazol-3-yl]phenyl]methyl]urea], the pest or weed control at 50 µg/cm2 in assay [1] (Table ABC (PC)) and in assay [2] (Table ABC (PC)) was 50 to 100% each time.

For the molecule `Cc1ccc(N2C(=O)CS/C2=N\C(=O)NCCCCc2cccc(-c3ncn(-c4ccc(OC(F)(F)F)cc4)n3)c2)c(C(C)C)c1` [P180, (Z)-1-(3-(2-isopropyl-4-methylphenyl)-4-oxothiazolidin-2-ylidene)-3-(4-(3-(1-(4-(trifluoromethoxy)phenyl)-1H-1,2,4-triazol-3-yl)phenyl)butyl)urea], the mortality at 50 µg/cm2 in assay [1] is 50 to 100%; in assay [2], 0%.

In the case of `CC(C)c1ccccc1N1C(=O)CS/C1=N\C(=O)NCc1cccc(-c2ncn(-c3ccc(OC(F)(F)F)cc3)n2)c1` [FB31, (Z)-1-(3-(2-isopropylphenyl)-4-oxothiazolidin-2-ylidene)-3-(3-(1-(4-(trifluoromethoxy)phenyl)-1H-1,2,4-triazol-3-yl)benzyl)urea], the pest or weed control at 50 µg/cm2 in assay [1] (Table ABC (FB)) and in assay [2] (Table ABC (FB)) was 50 to 100% throughout.

Regarding `CC(C)c1ccccc1N1C(=O)CS/C1=N\C(=O)NCCCc1ccc(-c2ncn(-c3ccc(OC(F)(F)F)cc3)n2)cc1` [P94, P197, (Z)-1-(3-(2-isopropylphenyl)-4-oxothiazolidin-2-ylidene)-3-(3-(4-(1-(4-(trifluoromethoxy)phenyl)-1H-1,2,4-triazol-3-yl)phenyl)propyl)urea], the mortality at 50 µg/cm2 in assay [1] and in assay [2] was 50 to 100% each time.

Take `CCCc1ccc(C)cc1N1C(=O)CS/C1=N\C(=O)NCc1ccc(-c2ncn(-c3ccc(OC(F)(F)F)cc3)n2)cc1` [P8, P852, (Z)-1-(3-(5-methyl-2-propylphenyl)-4-oxothiazolidin-2-ylidene)-3-(4-(1-(4-(trifluoromethoxy)phenyl)-1H-1,2,4-triazol-3-yl)benzyl)urea]: the mortality at 50 µg/cm2 in assay [1] and in assay [2] was 50 to 100% throughout.

On to `CCc1cccc(C)c1NC(=S)NC(=O)NCCCc1ccc(-c2ncn(-c3ccc(OC(F)(F)F)cc3)n2)cc1` [PC101, 1-[(2-ethyl-6-methyl-phenyl)carbamothioyl]-3-[3-[4-[1-[4-(trifluoromethoxy)phenyl]-1H-1,2,4-triazol-3-yl]phenyl]propyl]urea], for which the pest or weed control at 50 µg/cm2 in assay [1] (Table ABC (PC)) and in assay [2] (Table ABC (PC)) was 50 to 100% each time.

Turning to `CC(C)c1ccc(Cl)cc1N1C(=O)CS/C1=N\C(=O)NCCc1ccc(-c2ncn(-c3ccc(C(F)(F)F)cc3)n2)cc1` [FB50, (Z)-1-(3-(5-chloro-2-isopropylphenyl)-4-oxothiazolidin-2-ylidene)-3-(4-(1-(4-(trifluoromethyl)phenyl)-1H-1,2,4-triazol-3-yl)phenethyl)urea], the pest or weed control at 50 µg/cm2 in assay [1] (Table ABC (FB)) and in assay [2] (Table ABC (FB)) was 50 to 100% in each case.

In the case of `Cc1cccc(C)c1NC(=S)NC(=O)NCCCCc1ccc(-c2ncn(-c3ccc(OC(F)(F)F)cc3)n2)cc1` [PC152, 1-[(2,6-dimethylphenyl)carbamothioyl]-3-[4-[4-[1-[4-(trifluoromethoxy)phenyl]-1H-1,2,4-triazol-3-yl]phenyl]butyl]urea], the pest or weed control at 50 µg/cm2 in assay [1] (Table ABC (PC)) and in assay [2] (Table ABC (PC)) was 50 to 100% throughout.

Consider `COc1ccc(N2C(=O)CS/C2=N\C(=O)NCCCCc2cccc(-c3ncn(-c4ccc(OC(F)(F)F)cc4)n3)c2)c(C)c1` [FB38, (Z)-1-(3-(4-methoxy-2-methylphenyl)-4-oxothiazolidin-2-ylidene)-3-(4-(3-(1-(4-(trifluoromethoxy)phenyl)-1H-1,2,4-triazol-3-yl)phenyl)butyl)urea], for which the figures for the pest or weed control at 50 µg/cm2 in assay [1] (Table ABC (FB)) and in assay [2] (Table ABC (FB)) were 50 to 100% and 0 to 50%, respectively.

For `CCn1s/c(=N\C(=O)NCCc2ccc(-c3ncn(-c4ccc(OC(F)(F)F)cc4)n3)cc2)n(-c2ccc(OC)cc2C(C)C)c1=O` [FB11, (Z)-1-(2-ethyl-4-(2-isopropyl-4-methoxyphenyl)-3-oxo-1,2,4-thiadiazolidin-5-ylidene)-3-(4-(1-(4-(trifluoromethoxy)phenyl)-1H-1,2,4-triazol-3-yl)phenethyl)urea], the pest or weed control at 50 µg/cm2 was 50 to 100% in assay [1] (Table ABC (FB)) and 0 to 50% in assay [2] (Table ABC (FB)).

What is called mortality is the share of the test organisms that died.
